Five molecules from ChEMBL document CHEMBL1147821, “P3 and P4 position analysis of vinyl ester pseudopeptide proteasome inhibitors” (Bioorg Med Chem Lett, 2006) can be followed below.

Molecules are shown by their SMILES.

The experiment addresses T1, Proteasome Macropain subunit MB1 (Homo sapiens, UniProt P28074).
T1 sequence (P28074 whole entry): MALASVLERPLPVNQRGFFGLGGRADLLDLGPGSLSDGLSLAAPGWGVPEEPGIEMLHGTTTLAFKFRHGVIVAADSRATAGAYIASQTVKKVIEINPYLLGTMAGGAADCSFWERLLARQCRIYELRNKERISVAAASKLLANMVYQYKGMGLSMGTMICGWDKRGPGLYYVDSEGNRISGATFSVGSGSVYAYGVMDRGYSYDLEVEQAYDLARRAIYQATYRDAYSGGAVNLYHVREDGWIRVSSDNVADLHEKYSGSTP
Description: Inhibition of chymotrypsin like activity of proteasome
With `CCOC(=O)/C=C/[C@H](CC(C)C)NC(=O)[C@H](CCC(N)=O)NC(=O)[C@@H](NC(=O)[C@@H](N)Cc1ccc(O)cc1)C(C)C`, the IC50 was determined as 4.32 µM. With `CCOC(=O)/C=C/[C@H](CC(C)C)NC(=O)[C@H](CCC(N)=O)NC(=O)[C@@H](NC(=O)c1cccc(O)c1C)C(C)C` the figure was 6.67 µM; with `CCOC(=O)/C=C/[C@H](CC(C)C)NC(=O)[C@H](CCC(N)=O)NC(=O)[C@H](Cc1ccccc1)NC(=O)c1cccc(O)c1C`, 2.23 µM.

As to `CC(C)C[C@@H](/C=C/S(C)(=O)=O)NC(=O)[C@H](CC(C)C)NC(=O)[C@H](CC(C)C)NC(=O)OCc1ccccc1`, half-maximal inhibition (IC50) was put at 0.061 µM. As to `CCOC(=O)/C=C/[C@H](CC(C)C)NC(=O)[C@H](CCC(N)=O)NC(=O)[C@@H](NC(=O)[C@@H](N)Cc1ccccc1)C(C)C`, the IC50 was 4.15 µM.
